Molecules are shown by their SMILES.

Assay [1] concerns the target Myosin-IIIa (Homo sapiens) (UniProt Q8NEV4). Nature of the assay: Selectivity interaction (LanthaScreen Eu Kinase Binding Assay) EUB0001632a MYO3A. The conditions noted are these: at 10 µM. (In TR-FRET formats the signal depends on donor and acceptor labels being close together.)
Assay [2] has as its target T1, Ankyrin repeat and protein kinase domain-containing protein 1 (Homo sapiens) (UniProt Q8NFD2).
T1 sequence (whole entry): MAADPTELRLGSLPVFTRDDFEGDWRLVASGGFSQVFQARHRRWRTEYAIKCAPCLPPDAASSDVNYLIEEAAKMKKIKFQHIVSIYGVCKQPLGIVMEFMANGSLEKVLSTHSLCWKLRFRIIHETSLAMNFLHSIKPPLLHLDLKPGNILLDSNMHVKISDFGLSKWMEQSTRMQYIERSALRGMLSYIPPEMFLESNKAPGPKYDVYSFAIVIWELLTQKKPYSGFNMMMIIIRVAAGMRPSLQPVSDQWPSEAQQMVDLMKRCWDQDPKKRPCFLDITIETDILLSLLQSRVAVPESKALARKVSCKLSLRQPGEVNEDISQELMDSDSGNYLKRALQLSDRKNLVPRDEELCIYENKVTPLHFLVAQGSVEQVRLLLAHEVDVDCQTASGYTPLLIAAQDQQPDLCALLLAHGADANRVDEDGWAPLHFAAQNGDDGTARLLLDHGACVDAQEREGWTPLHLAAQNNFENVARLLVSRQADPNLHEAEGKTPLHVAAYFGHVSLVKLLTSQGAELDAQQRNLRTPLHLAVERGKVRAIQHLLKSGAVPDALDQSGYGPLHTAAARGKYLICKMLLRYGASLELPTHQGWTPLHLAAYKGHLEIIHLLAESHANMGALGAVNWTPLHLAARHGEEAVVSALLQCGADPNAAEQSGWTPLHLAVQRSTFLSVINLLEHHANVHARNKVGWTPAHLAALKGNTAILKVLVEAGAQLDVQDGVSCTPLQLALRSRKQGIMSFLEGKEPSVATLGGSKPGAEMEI
The following applies: at 10 µM.

The target in assay [3] is T2, Dual specificity mitogen-activated protein kinase kinase 4 (Homo sapiens) (UniProt P45985).
T2 sequence (whole entry): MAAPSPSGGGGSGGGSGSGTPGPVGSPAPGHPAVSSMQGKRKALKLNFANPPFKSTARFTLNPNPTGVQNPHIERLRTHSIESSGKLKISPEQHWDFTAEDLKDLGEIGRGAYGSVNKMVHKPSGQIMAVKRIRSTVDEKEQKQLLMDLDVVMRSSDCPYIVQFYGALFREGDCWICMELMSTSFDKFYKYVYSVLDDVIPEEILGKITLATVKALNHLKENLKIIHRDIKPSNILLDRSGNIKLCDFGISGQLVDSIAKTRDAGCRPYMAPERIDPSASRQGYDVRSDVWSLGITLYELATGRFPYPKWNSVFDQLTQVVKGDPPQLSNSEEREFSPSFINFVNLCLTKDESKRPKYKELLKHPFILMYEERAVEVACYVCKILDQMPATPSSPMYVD
Description: Selectivity interaction (KinomeScan (DiscoverX)) EUB0001079a MAP2K4. The conditions noted are these: at 1 µM.

The target in assay [4] is T3, Aurora kinase C (Homo sapiens) (UniProt Q9UQB9).
T3 sequence (whole entry): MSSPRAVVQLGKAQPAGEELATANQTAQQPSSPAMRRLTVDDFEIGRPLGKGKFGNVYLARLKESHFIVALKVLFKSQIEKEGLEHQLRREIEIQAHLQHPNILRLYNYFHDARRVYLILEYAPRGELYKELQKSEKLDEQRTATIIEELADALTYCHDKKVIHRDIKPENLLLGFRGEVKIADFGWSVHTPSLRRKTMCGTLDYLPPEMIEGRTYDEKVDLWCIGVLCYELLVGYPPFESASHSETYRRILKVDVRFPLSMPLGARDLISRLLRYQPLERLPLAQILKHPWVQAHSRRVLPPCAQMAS
Description: Selectivity interaction (ProQinase) EUB0000171b AURKC.

In assay [5] the target is T4, Tyrosine-protein kinase TXK (Homo sapiens) (UniProt P42681).
T4 sequence (whole entry): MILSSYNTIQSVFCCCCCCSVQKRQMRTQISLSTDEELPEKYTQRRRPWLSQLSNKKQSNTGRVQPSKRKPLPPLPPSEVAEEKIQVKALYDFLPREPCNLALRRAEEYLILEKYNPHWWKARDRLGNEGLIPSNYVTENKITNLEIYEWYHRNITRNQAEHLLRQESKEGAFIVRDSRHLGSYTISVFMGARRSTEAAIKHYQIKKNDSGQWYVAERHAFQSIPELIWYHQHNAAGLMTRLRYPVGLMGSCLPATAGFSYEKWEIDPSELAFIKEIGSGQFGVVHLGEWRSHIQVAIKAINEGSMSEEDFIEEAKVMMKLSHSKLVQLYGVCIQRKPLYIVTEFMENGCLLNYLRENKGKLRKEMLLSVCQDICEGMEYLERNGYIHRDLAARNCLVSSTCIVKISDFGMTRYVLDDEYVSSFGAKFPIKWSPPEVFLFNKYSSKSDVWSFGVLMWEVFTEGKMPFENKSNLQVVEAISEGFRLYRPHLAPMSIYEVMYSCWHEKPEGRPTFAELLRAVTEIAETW
Description: Selectivity interaction (ProQinase) EUB0000171b TXK.

Myosin-IIIa (Homo sapiens), sequence (Q8NEV4 whole entry, the tested form may be a part): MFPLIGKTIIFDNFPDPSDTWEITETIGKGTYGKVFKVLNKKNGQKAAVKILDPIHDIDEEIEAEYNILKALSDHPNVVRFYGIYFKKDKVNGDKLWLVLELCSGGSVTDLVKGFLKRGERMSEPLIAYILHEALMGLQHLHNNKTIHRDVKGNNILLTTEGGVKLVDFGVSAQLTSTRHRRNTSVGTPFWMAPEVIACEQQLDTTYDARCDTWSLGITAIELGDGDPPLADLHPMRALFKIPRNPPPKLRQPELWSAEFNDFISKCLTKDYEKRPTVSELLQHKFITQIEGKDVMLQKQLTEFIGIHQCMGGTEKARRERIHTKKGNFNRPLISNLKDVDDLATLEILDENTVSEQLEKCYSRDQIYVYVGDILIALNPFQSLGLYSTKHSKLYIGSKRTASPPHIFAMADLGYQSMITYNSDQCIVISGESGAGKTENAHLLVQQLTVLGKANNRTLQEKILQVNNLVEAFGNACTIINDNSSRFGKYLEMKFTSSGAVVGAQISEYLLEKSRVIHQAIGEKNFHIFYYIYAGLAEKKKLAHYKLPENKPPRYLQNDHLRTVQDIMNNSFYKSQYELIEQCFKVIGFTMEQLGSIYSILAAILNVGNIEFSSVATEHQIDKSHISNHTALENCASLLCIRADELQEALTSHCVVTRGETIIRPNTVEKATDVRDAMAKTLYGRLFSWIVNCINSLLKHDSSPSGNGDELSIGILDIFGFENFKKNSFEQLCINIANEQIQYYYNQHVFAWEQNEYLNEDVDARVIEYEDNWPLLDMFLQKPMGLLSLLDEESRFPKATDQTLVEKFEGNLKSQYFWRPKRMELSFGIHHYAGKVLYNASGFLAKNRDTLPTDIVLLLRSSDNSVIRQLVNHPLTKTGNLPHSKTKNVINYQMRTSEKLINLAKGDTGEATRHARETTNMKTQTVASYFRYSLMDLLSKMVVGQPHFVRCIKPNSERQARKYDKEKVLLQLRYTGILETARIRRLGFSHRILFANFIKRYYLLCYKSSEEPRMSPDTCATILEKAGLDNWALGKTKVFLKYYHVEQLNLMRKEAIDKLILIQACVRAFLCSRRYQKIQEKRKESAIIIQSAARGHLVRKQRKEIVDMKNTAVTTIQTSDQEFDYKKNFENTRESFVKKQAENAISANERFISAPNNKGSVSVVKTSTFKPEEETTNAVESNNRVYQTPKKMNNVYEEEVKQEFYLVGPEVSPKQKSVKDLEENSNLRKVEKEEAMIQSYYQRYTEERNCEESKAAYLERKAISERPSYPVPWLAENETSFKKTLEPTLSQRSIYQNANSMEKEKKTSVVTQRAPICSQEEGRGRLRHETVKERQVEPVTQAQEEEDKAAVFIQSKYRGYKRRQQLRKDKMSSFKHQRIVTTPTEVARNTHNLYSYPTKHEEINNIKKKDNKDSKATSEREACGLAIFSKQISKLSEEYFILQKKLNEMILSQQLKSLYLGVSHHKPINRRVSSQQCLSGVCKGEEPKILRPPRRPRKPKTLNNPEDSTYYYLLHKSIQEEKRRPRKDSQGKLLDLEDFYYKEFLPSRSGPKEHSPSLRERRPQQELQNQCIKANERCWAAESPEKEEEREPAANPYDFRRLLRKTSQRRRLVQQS

For the molecule `Cn1cc(-n2cnc3c(NCc4nc5cc(Cl)c(Cl)cc5[nH]4)nc(N4CCOCC4)nc32)cn1`, the % of inhibition in assay [1] is -42.6%.

With `Cc1cc([C@@H](C)Nc2ccccc2C(=O)O)c2nc(N3CCOCC3)cc(=O)n2c1` [AZD-6482], the % of control in assay [2] was 100%.

Molecule `Nc1cnc(N2CCc3cc(S(=O)(=O)Nc4c(F)cc(Cl)cc4F)cc(N4CCCC4=O)c32)nc1` [TP-020n] registered a % of control in assay [3] of 100%.

For `C=CC(=O)Nc1cccc(C(=O)Nc2ccc(Nc3cc(-c4[nH]c(SC)nc4C)ccn3)cc2)c1`, the % of control in assay [4] (at 1 µM) came to 86%; in assay [4] (at 5 µM) it was 57%; in assay [5] (at 1 µM), 87%; in assay [5] (at 5 µM), 77%.
